Measurements taken from patent US20060073528A1, “Measurement methods” (priority 2004, published 2006).
Where “and” joins values, the source holds several entries; their conditions need not be identical. Identical values can stand only once. Like-named read-outs stand apart in the source and are kept apart here.

Tests used:
[1] = Lyophilized standard stocks reconstituted and analyzed by Hisep RP-HPLC (monomer to dimer conversion); type: physicochemical; conditions: for Dimer area observed / Monomer area observed: single injections
Method: All vials contained a total of 15 nmol. Two vials of each standard were reconstituted by adding 150 μL of 50% acetonitrile/0.01% TFA to make a 100 μM stock solution; the remaining vials were reconstituted with 300 μL to make 50 μM stocks. The stocks were further diluted to the working concentration of 5 μm and analyzed. […] The stability of these standards were monitored over time.

[2] = Sample stability of DM1-related impurities with DS-DM1-deJ591 in the autosampler (Hisep RP-HPLC)
Method: The sample was analyzed at times t=0 h, 12 h, and 24 h. Sample stability was determined by comparing the area percent (area %) values of the stored sample to that of the initially-prepared solution (t=0 h).

[3] = 50 μM stock - lyophilized, average per vial
[4] = 100 μM stock - lyophilized, average per vial
[5] = 100 μM stock - lyophilized, vials 1 and 2

SMILES | DM1 monomer to dimer conversion after lyophilization ([1]; 15 nmol vials lyophilized, reconstituted in 50% acetonitrile/0.01% TFA to 100 μM or 50 μM, diluted to 5 μM) | Dimer area observed, Average [1, 3] | Monomer area observed, Average [1, 3] | Dimer area observed ([1]; 50 μM stock - lyophilized) | Monomer area observed ([1]; 50 μM stock - lyophilized, vials 1 and 2) | Dimer area observed, Average [1, 4] | Monomer area observed, Average [1, 4] | Dimer area observed [1, 5] | Monomer area observed [1, 5] | Monomer area observed, Average ([1]; 100 μM stock - untreated) | Monomer area observed ([1]; 100 μM stock - untreated) | Average peak area ([2]; t = 0 h) | Average peak area ([2]; t = 12 h) | Average peak area ([2]; t = 24 h) | % remaining area counts relative to t = 0 h (12 h) [%] | % remaining area counts relative to t = 0 h (24 h) [%]
COc1cc2cc(c1Cl)N(C)C(=O)C[C@H](OC(=O)[C@H](C)N(C)C(=O)CCS)[C@]1(C)O[C@H]1[C@H](C)[C@@H]1C[C@@](O)(NC(=O)O1)[C@H](OC)/C=C/C=C(\C)C2 [DM1 monomer] | significant DM1 monomer→dimer conversion | 10669 | 476235 and 412633 | 10097 and 10809 and 11100 | 476970 and 475075 and 476660 and 415292 and 411974 and 410632 | 10086 and 10158 | 391081 and 417523 | 10508 and 8635 and 11114 and 10029 and 10666 and 9780 | 392043 and 391526 and 389675 and 418902 and 418204 and 415463 | 459843 | 459407 and 460238 and 459885 | 223667 | 217293 | 214265 | – | –
COc1cc2cc(c1Cl)N(C)C(=O)CC(OC(=O)C(C)N(C)CC(=O)CCSSC(C)CCC(=O)O)C1(C)OC1C(C)C1CC(O)(NC(=O)O1)C(OC)C=CC=C(C)C2 (stereo not shown) [DM1-TPA adduct, DM1-thiopentanoic acid adduct] | – | – | – | – | – | – | – | – | – | – | – | 246302 | 245410 | 245126 | – | –
S=c1cccc[nH]1 [mercaptopyridine] | – | – | – | – | – | – | – | – | – | – | – | 15446 | 15654 | 15620 | – | –
CC(CCC(=O)O)SSc1ccccn1 (stereo not shown) [PPA, 4-(2-pyridyldithio) pentanoic acid] | – | – | – | – | – | – | – | – | – | – | – | 15881 | 15377 | 15595 | 96.83 | 98.20
